The text below walks through data of patent US20040235855A1, “Phospholipase C inhibitors for use in treating inflammatory disorders” (priority 2003, published 2004).

Structures are written as SMILES.

The inhibition is the percentage by which the read-out fell short of the control. The IC50 is the concentration needed to halve the response being measured. As a reminder, the % Inhibition is the change of the read-out against control, counted positive when it falls.

Test [1] relates to adjuvant-induced arthritis. Nature of the test: Adjuvant-induced arthritis rat model. Particulars: administered i.p. In kind it is in vivo. The text has this: The adjuvant-induced arthritis rat model was used to test Compound 38 (as described in Anderson G D, Hauser S D, McGarity K L, Bremer M E, Isakson P C and Gregory S A, Selective Inhibition of Cyclooxygenase (Cox)-2 Reverses Inflammation and Expression of Cox-2 and Interleukein 6 in Rat Adjuvant Arthritis, J. Clin. Invest., 1996, 97:2672-2679).

The subject of test [2] is PMA-induced ear edema. The experiment in a line: Chronic PMA-induced ear edema mouse model. In kind it is in vivo. The settings on record: 0.5 mg dose applied topically. The text has this:
The chronic PMA-induced ear edema mouse model was used to test Compound 38 (as described in Stanley P L, Steiner S, Havens M and Tramposch K M, Mouse Skin Inflammation Induced by Multiple Topical Applications of 12-O-Tetradecanoylphorbol-13-acetate, Skin Pharmacol., 1991, 4: 262-271).

Test [3] relates to zymosan-induced peritonitis. Nature of the test: Zymosan-induced peritonitis mouse model. Particulars: 30 mpk dose administered i.p. In kind it is in vivo. The text has this:
The zymosan-induced peritonitis model was used to test Compound 38 (as described in Rao T S, Currie J L, Shaffer A F and Isakson P C, In vivo Characterization of Zymosan-Induced Mouse Peritoneal Inflammation, J. Pharm. Exptl. Ther., 1994, 269: 917-925).

Test [4] relates to carageenan-induced paw edema. Nature of the test: Carageenan-induced paw edema rat model. In kind it is in vivo. The text has this:
The carageenan-induced paw edema rat model was used to test Compound 38 (as described in Vinegar R, Truax J F, Selph J L, Johnston P R, Venable A L and McKenzie K K, Pathway to Carrageenan-Induced Inflammation in the Hind Limb of the Rat, Fed. Proc., 1987, 46:118-126).

Test [5] addresses T1, human PLC-β2 (Homo sapiens, UniProt Q00722).
T1 construct: made in house; host or cells: Sf9 cells (Spodoptera frugiperda), recombinant baculovirus
The experiment in a line: PLC assay using FlashPlates (96-well, immobilized [3H]PIP2 substrate). In kind it is biochemical. Particulars: purified recombinant human PLC-β2 or cytosolic human PLC-β2; hydrolysis of [3H]PIP2. The procedure, abridged: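 Purified recombinant human PLC-β2 (Sf9 baculovirus) or cytosolic PLC-β2 from HL-60 cells hydrolysed [3H]PIP2 immobilised on phospholipid FlashPlates. Reactions ran in 50 mM Tris/HCl pH 7.2 with EDTA, KCl, LiCl, 0.04% DOC and 2 mM CaCl2. Activity was read as loss of bound radioactivity by scintillation counting.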

Test [6] has as its system PMA-induced ear edema. The experiment in a line: Acute PMA-induced ear edema mouse model. In kind it is in vivo. An excerpt:
The acute PMA-induced ear edema mouse model was used to test compounds of the present […] (as described in Carlson R P, O'Neill-Davis L, Chang J. and Lewis A J, Modulation of Mouse Ear Edema by Cyclooxygenase and Lipoxygenase Inhibitors and Other Pharmacologic Agents, Agents and Actions, 1985, 17:197-204).

T1 sequence (Q00722 whole entry): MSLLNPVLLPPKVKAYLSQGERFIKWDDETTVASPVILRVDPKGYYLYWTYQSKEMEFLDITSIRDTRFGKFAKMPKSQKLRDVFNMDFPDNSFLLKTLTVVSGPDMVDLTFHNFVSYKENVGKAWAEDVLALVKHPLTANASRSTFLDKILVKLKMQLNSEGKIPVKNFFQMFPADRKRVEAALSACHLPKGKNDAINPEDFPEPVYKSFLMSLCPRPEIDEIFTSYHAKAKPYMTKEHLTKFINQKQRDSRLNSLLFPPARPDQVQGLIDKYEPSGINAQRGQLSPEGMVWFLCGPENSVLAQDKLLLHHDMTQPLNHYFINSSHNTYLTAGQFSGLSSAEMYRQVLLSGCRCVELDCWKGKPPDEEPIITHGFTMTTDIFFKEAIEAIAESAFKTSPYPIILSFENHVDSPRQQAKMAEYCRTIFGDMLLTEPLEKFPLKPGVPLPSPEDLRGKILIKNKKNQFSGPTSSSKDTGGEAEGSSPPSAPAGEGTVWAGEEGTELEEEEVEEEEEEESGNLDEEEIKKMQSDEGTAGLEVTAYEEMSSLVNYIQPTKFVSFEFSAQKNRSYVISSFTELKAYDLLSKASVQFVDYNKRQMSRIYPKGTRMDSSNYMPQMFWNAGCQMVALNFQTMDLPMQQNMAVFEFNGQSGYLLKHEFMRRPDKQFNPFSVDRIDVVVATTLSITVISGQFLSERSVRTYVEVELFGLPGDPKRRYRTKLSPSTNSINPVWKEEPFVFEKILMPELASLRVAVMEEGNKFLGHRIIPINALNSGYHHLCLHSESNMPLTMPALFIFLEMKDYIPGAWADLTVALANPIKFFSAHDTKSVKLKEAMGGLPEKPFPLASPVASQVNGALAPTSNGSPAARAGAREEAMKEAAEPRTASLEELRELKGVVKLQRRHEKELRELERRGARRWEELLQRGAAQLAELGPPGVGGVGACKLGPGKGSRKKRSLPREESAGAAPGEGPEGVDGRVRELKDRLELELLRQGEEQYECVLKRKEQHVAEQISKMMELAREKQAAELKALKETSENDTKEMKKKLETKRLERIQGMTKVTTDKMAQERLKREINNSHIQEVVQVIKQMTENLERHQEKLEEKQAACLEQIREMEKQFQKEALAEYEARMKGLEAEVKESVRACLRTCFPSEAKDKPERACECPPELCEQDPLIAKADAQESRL

Take `O=C(Nc1cc(C(=O)N2CCNCC2)ccc1N1CCN(C(c2ccccc2)c2ccccc2)CC1)NC1CCCCC1` [Cpd 38, N-cyclohexyl-N′-[2-[4-(diphenylmethyl)-1-piperazinyl]-5-(1-piperazinylcarbonyl)phenyl]-urea]: the inhibition in paws entry in test [1] is recorded as “significant inhibition in both paws”. In addition, the inhibition in test [2] was 53%; in test [3] it was “about 45%”; in test [4] (30 mpk dose administered i.p.), 80%; in test [4] (30 mpk dose administered s.c.) it was 60%. Moreover, the IC50 in test [5] worked out at 2200 nM. Also, the entries for the “% Inhibition” value in test [6] (5 mpk i.v.), in test [6] (30 mpk i.p.) and in test [6] (30 mpk p.o.) were 47%, 84% and 0%, respectively.
